From patent publication US7098231B2, “Viral polymerase inhibitors” (Boehringer Ingelheim International GmbH, priority 2003, dated 2006)

Target: T1, hepatitis C virus RNA dependent polymerase (NS5B) (Hepatitis C virus genotype 1b, UniProt P26663)
T1 construct: The C-terminal polyprotein cleavage product, NS5B, is the elongation subunit of the HCV replicase
Experiment: biochemical
Protocol: Inhibition of NS5B RNA Dependent RNA Polymerase Activity
The compounds of the invention were tested for inhibitory activity against the hepatitis C virus RNA dependent polymerase (NS5B), according to the protocol described in WO 03/010141.

T1 sequence (P26663 2420-3010): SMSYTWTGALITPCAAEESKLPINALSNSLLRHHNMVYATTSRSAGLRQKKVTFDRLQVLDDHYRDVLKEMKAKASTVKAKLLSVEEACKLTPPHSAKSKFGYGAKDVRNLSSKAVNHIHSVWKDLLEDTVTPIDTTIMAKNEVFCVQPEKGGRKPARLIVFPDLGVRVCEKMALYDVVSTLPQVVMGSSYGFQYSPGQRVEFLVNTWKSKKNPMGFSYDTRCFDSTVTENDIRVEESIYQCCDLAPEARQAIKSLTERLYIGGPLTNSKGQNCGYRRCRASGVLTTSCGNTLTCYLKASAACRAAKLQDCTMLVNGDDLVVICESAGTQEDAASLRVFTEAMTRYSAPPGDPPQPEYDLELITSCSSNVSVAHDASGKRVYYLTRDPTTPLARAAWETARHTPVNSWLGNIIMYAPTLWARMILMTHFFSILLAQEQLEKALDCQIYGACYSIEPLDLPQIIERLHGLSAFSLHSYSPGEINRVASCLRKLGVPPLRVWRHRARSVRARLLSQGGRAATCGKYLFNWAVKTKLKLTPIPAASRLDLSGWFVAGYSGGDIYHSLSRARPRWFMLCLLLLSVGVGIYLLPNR

Compound | IC50 [µM]
COc1c(C(=O)NS(C)(=O)=O)ccc2c(C3CCCC3)c(-c3ccoc3)n(C)c12 [compound 201] | < 1
Cn1c(-c2ccoc2)c(C2CCCCC2)c2cc(C(=O)NS(=O)(=O)c3ccccc3)ccc21 [compound 204] | 1 to 20
Cn1c(-c2ccoc2)c(C2CCCCC2)c2cc(C(=O)NS(C)(=O)=O)ccc21 [compound 203] | 1 to 20
COc1c(C(=O)NS(=O)(=O)c2ccccc2)ccc2c(C3CCCC3)c(-c3ccoc3)n(C)c12 [compound 202] | < 1
